From publication PMC12443593, “A live bacteria enzyme assay for identification of human disease mutations and drug screening” (Nature Biomedical Engineering, 2025)

Biological target: T1, human G6PD (glucose-6-phosphate dehydrogenase) (Homo sapiens, UniProt P11413)
T1 construct: functional as dimer or tetramer
Test: growth rate of humanized E. coli (LEICA), Hill fit
Format: cell-based
Details: live E. coli Δpgi Δzwf expressing human G6PD, M9 glucose, 37 °C, 1% DMSO; growth read-out, no effect on E. coli Δpgi

T1 sequence (P11413 2-515): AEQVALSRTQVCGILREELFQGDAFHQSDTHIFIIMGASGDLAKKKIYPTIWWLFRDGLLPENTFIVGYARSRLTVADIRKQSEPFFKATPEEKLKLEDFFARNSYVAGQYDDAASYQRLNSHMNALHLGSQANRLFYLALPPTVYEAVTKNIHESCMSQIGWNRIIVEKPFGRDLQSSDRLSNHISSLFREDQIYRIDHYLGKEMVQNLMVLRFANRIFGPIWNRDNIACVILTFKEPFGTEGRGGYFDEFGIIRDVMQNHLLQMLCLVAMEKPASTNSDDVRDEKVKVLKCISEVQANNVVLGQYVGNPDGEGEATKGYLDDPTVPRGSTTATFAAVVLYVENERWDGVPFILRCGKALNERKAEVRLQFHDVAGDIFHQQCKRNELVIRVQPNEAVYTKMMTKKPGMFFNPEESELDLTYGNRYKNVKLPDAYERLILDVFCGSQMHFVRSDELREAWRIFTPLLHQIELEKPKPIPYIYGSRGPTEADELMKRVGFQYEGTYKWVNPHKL

For `N#Cc1cc(Nc2ncc3c(n2)CCCCC3=O)cs1` [G6PDi-1], which IC50 is on record?
The IC50 was 111 µM.
